From patent US8987250B2 (Gilead Sciences, Inc., priority 2012, dated 2015)
Read-outs that look alike come from different tables or passages of the source.

Test system: HIV-IIIb
Experiment: Test A: Antiviral Assay in MT4 Cells
Type: cell-based
Settings: Human immunodeficiency virus 1, IIIB, MT4, 120 h
How it was run: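 Read-out: CellTiter-Glo chemiluminescence after 5-day incubation at 37 °C. Compounds tested as 3-fold serial dilutions (10 concentrations, quadruplicate) in RPMI 1640 with 10% FBS, on MT-4 cells pre-infected at 37 °C with HIV-IIIb at 0.004 m.o.i.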

[1] = Table 2, MT-4 cells infected with HIV-IIIb, 5 days of incubation, CellTiter-Glo, read-out: EC50

| SMILES | EC50 [1] [µM] | EC50 [µM] |
| --- | --- | --- |
| Cc1cc2nc(-c3ccnc(N4CCOCC4)c3)sc2c(-c2ccc(Cl)cc2)c1[C@H](OC(C)(C)C)C(=O)O [Compound 218, (S)-2-tert-butoxy-2-(7-(4-chlorophenyl)-5-methyl-2-(2-morpholinopyridin-4-yl)benzo[d]thiazol-6-yl)acetic acid] | 0.116 | – |
| Cc1cc2nc(-c3ccnc(N4CCN(C)CC4)c3)sc2c(-c2ccc(Cl)cc2)c1[C@H](OC(C)(C)C)C(=O)O [Compound 219, (S)-2-tert-butoxy-2-(7-(4-chlorophenyl)-5-methyl-2-(2-(4-methylpiperazin-1-yl)pyridin-4-yl)benzo[d]thiazol-6-yl)acetic acid] | 0.039 | – |
| CCN1CCN(c2cc(-c3nc4cc(C)c([C@H](OC(C)(C)C)C(=O)O)c(-c5ccc(Cl)cc5)c4s3)ccn2)CC1 [Compound 220, (S)-2-tert-butoxy-2-(7-(4-chlorophenyl)-2-(2-(4-ethylpiperazin-1-yl)pyridin-4-yl)-5-methylbenzo[d]thiazol-6-yl)acetic acid] | 0.043 | – |
| Cc1cc2nc(-c3ccnc(N4CCN(C(C)C)CC4)c3)sc2c(-c2ccc(Cl)cc2)c1[C@H](OC(C)(C)C)C(=O)O [Compound 221, (S)-2-tert-butoxy-2-(7-(4-chlorophenyl)-2-(2-(4-isopropylpiperazin-1-yl)pyridin-4-yl)-5-methylbenzo[d]thiazol-6-yl)acetic acid] | 0.024 | – |
| Cc1cc2nc(-c3ccnc(N4CCn5c(nnc5C(F)(F)F)C4)c3)sc2c(-c2ccc(Cl)cc2)c1[C@H](OC(C)(C)C)C(=O)O [Compound 222, (S)-2-tert-butoxy-2-(7-(4-chlorophenyl)-5-methyl-2-(2-(3-(trifluoromethyl)-5,6-dihydro-[1,2,4]triazolo[4,3-a]pyrazin-7(8H)-yl)pyridin-4-yl)benzo[d]thiazol-6-yl)acetic acid] | – | 0.049 |
| Cc1cc2nc(-c3ccnc(N4CCn5cnnc5C4)c3)sc2c(-c2ccc(Cl)cc2)c1[C@H](OC(C)(C)C)C(=O)O [Compound 223, (S)-2-tert-butoxy-2-(7-(4-chlorophenyl)-2-(2-(5,6-dihydro-[1,2,4]triazolo[4,3-a]pyrazin-7(8H)-yl)pyridin-4-yl)-5-methylbenzo[d]thiazol-6-yl)acetic acid] | 0.312 | – |
| Cc1cc2nc(-c3ccnc(N4CCc5c(c(C)nn5C)C4)c3)sc2c(-c2ccc(Cl)cc2)c1[C@H](OC(C)(C)C)C(=O)O [Compound 224, (S)-2-tert-butoxy-2-(7-(4-chlorophenyl)-2-(2-(1,3-dimethyl-6,7-dihydro-1H-pyrazolo[4,3-c]pyridin-5(4H)-yl)pyridin-4-yl)-5-methylbenzo[d]thiazol-6-yl)acetic acid] | 0.012 | – |
| Cc1cc2nc(-c3ccnc(-c4ccc5c(F)nn(C)c5c4)c3)sc2c(-c2ccc(Cl)cc2)c1[C@H](OC(C)(C)C)C(=O)O [Compound 225, (S)-2-tert-butoxy-2-(7-(4-chlorophenyl)-2-(2-(3-fluoro-1-methyl-1H-indazol-6-yl)pyridin-4-yl)-5-methylbenzo[d]thiazol-6-yl)acetic acid] | 0.096 | – |
| CCc1cnn2cc(-c3cc(-c4nc5cc(C)c([C@H](OC(C)(C)C)C(=O)O)c(-c6ccc(Cl)cc6)c5s4)ccn3)cnc12 [Compound 226, (S)-2-tert-butoxy-2-(7-(4-chlorophenyl)-2-(2-(3-ethylpyrazolo[1,5-a]pyrimidin-6-yl)pyridin-4-yl)-5-methylbenzo[d]thiazol-6-yl)acetic acid] | 0.036 | – |
| CCc1cnn2cc(-c3nc4cc(C)c([C@H](OC(C)(C)C)C(=O)O)c(-c5ccc(Cl)cc5)c4s3)cnc12 [Compound 227, (S)-2-tert-butoxy-2-(7-(4-chlorophenyl)-2-(3-ethylpyrazolo[1,5-a]pyrimidin-6-yl)-5-methylbenzo[d]thiazol-6-yl)acetic acid] | 0.085 | – |
| Cc1cc2nc(-c3cccc(-n4cc(C)c(=O)[nH]c4=O)c3)sc2c(-c2ccc(Cl)cc2)c1[C@H](OC(C)(C)C)C(=O)O [Compound 228, (S)-2-tert-butoxy-2-(7-(4-chlorophenyl)-5-methyl-2-(3-(5-methyl-2,4-dioxo-3,4-dihydropyrimidin-1(2H)-yl)phenyl)benzo[d]thiazol-6-yl)acetic acid] | 0.91 | – |
| Cc1cc2nc(-c3cccc(-n4ccc(=O)[nH]c4=O)c3)sc2c(-c2ccc(Cl)cc2)c1[C@H](OC(C)(C)C)C(=O)O [Compound 229, (S)-2-tert-butoxy-2-(7-(4-chlorophenyl)-2-(3-(2,4-dioxo-3,4-dihydropyrimidin-1(2H)-yl)phenyl)-5-methylbenzo[d]thiazol-6-yl)acetic acid] | 1.74 | – |
| Cc1cc2nc(-c3ccnc(-c4ccc(=O)[nH]c4)c3)sc2c(-c2ccc(Cl)cc2)c1[C@H](OC(C)(C)C)C(=O)O [Compound 230, (S)-2-tert-butoxy-2-(7-(4-chlorophenyl)-5-methyl-2-(2-(6-oxo-1,6-dihydropyridin-3-yl)pyridin-4-yl)benzo[d]thiazol-6-yl)acetic acid] | 0.131 | – |
| Cc1cc2nc(-c3ccnc(-c4ccc[nH]c4=O)c3)sc2c(-c2ccc(Cl)cc2)c1[C@H](OC(C)(C)C)C(=O)O [Compound 232, (S)-2-tert-butoxy-2-(7-(4-chlorophenyl)-5-methyl-2-(2-(2-oxo-1,2-dihydropyridin-3-yl)pyridin-4-yl)benzo[d]thiazol-6-yl)acetic acid] | 0.086 | – |
| COc1ncccc1-c1cc(-c2nc3cc(C)c([C@H](OC(C)(C)C)C(=O)O)c(-c4ccc(Cl)cc4)c3s2)ccn1 [Compound 233, (S)-2-tert-butoxy-2-(7-(4-chlorophenyl)-2-(2′-methoxy-2,3′-bipyridin-4-yl)-5-methylbenzo[d]thiazol-6-yl)acetic acid] | 0.033 | – |
| Cc1cc2nc(-c3ccnc(-c4cc5c(C)nn(C)c5cn4)c3)sc2c(-c2ccc(Cl)cc2)c1[C@H](OC(C)(C)C)C(=O)O [Compound 234, (S)-2-tert-butoxy-2-(7-(4-chlorophenyl)-2-(2-(1,3-dimethyl-1H-pyrazolo[3,4-c]pyridin-5-yl)pyridin-4-yl)-5-methylbenzo[d]thiazol-6-yl)acetic acid] | 0.013 | – |
| Cc1cc2nc(-c3cc4c(C)nn(C)c4cn3)sc2c(-c2ccc(Cl)cc2)c1[C@H](OC(C)(C)C)C(=O)O [Compound 235, (S)-2-tert-butoxy-2-(7-(4-chlorophenyl)-2-(1,3-dimethyl-1H-pyrazolo[3,4-c]pyridin-5-yl)-5-methylbenzo[d]thiazol-6-yl)acetic acid] | 0.014 | – |
| Cc1cc2nc(-c3ccnc(-c4cccc5c4CC(=O)N5C)c3)sc2c(-c2ccc(Cl)cc2)c1[C@H](OC(C)(C)C)C(=O)O [Compound 236, (S)-2-tert-butoxy-2-(7-(4-chlorophenyl)-5-methyl-2-(2-(1-methyl-2-oxoindolin-4-yl)pyridin-4-yl)benzo[d]thiazol-6-yl)acetic acid] | 0.031 | – |
| Cc1cc2nc(-c3ccnc(-c4ccc5c(c4)CC(=O)N5C)c3)sc2c(-c2ccc(Cl)cc2)c1[C@H](OC(C)(C)C)C(=O)O [Compound 237, (S)-2-tert-butoxy-2-(7-(4-chlorophenyl)-5-methyl-2-(2-(1-methyl-2-oxoindolin-5-yl)pyridin-4-yl)benzo[d]thiazol-6-yl)acetic acid] | 0.01 | – |
| Cc1cc2nc(-c3ccc4c(c3)CC(=O)N4C)sc2c(-c2ccc(Cl)cc2)c1[C@H](OC(C)(C)C)C(=O)O [Compound 239, (S)-2-tert-butoxy-2-(7-(4-chlorophenyl)-5-methyl-2-(1-methyl-2-oxoindolin-5-yl)benzo[d]thiazol-6-yl)acetic acid] | 0.026 | – |
| Cc1cc2nc(-c3ccc4c(c3)CC(=O)N4)sc2c(-c2ccc(Cl)cc2)c1[C@H](OC(C)(C)C)C(=O)O [Compound 240, (S)-2-tert-butoxy-2-(7-(4-chlorophenyl)-5-methyl-2-(2-oxoindolin-5-yl)benzo[d]thiazol-6-yl)acetic acid] | 0.076 | – |
| Cc1cc2nc(-c3ccnc(N4Cc5ccncc5C4=O)c3)sc2c(-c2ccc(Cl)cc2)c1[C@H](OC(C)(C)C)C(=O)O [Compound 241, (S)-2-tert-butoxy-2-(7-(4-chlorophenyl)-5-methyl-2-(2-(3-oxo-1H-pyrrolo[3,4-c]pyridin-2(3H)-yl)pyridin-4-yl)benzo[d]thiazol-6-yl)acetic acid] | 0.003 | – |
| Cc1ccc2c(c1)CCN2c1nc2cc(C)c([C@H](OC(C)(C)C)C(=O)O)c(-c3ccc(Cl)cc3)c2s1 [Compound 243, (S)-2-tert-butoxy-2-(7-(4-chlorophenyl)-5-methyl-2-(5-methylindolin-1-yl)benzo[d]thiazol-6-yl)acetic acid] | 0.424 | – |
| Cc1cc2nc(-c3ccnc(N4CCc5cnccc54)c3)sc2c(-c2ccc(Cl)cc2)c1[C@H](OC(C)(C)C)C(=O)O [Compound 245, (S)-2-tert-butoxy-2-(7-(4-chlorophenyl)-2-(2-(2,3-dihydro-1H-pyrrolo[3,2-c]pyridin-1-yl)pyridin-4-yl)-5-methylbenzo[d]thiazol-6-yl)acetic acid] | 0.009 | – |
| Cc1cc2nc(-c3nc(N4CCN(C(C)C)CC4)cs3)sc2c(-c2ccc(Cl)cc2)c1[C@H](OC(C)(C)C)C(=O)O [Compound 246, (S)-2-tert-butoxy-2-(7-(4-chlorophenyl)-2-(4-(4-isopropylpiperazin-1-yl)thiazol-2-yl)-5-methylbenzo[d]thiazol-6-yl)acetic acid] | 0.009 | – |
| Cc1cc2nc(-c3nc(N4CCN(C)CC4)cs3)sc2c(-c2ccc(Cl)cc2)c1[C@H](OC(C)(C)C)C(=O)O [Compound 247] | 0.01 | – |
| Cc1cc2nc(-c3ccc4c(c3)CN(C)C4=O)sc2c(-c2ccc(Cl)cc2)c1[C@H](OC(C)(C)C)C(=O)O [Compound 248, (S)-2-tert-butoxy-2-(7-(4-chlorophenyl)-5-methyl-2-(2-methyl-1-oxoisoindolin-5-yl)benzo[d]thiazol-6-yl)acetic acid] | 0.013 | – |
